From patent US4645776A, “N-(dichlorofluoromethylthio)-3,4-dimethylmaleimide and its use as a fungicide” (Bayer Aktiengesellschaft, priority 1984, dated 1987)
Values after ≈ are worked out from the molar mass of the structure shown.

What was measured:
Aureobasidium pullulans = assay: MIC on agar, Aureobasidium pullulans; assay type: cell-based; conditions: 336 h, beerwort/peptone agar, 28° C., 2 weeks
Procedure: (§1) N-(Dichlorofluoromethylthio)-3,4-dimethylmaleimide is added in concentrations of 0.1 mg/l to 5,000 mg/l to an agar prepared from beerwort and peptone. After storage at 28° C. and 60 to 70% relative atmospheric humidity for 2 weeks, the MIC is determined. The MIC is the lowest concentration of active compound at which no growth at all of the species of microbe used takes place, and is given in the following table.

Sclerophoma pityophila = assay: MIC on agar, Sclerophoma pityophila; assay type: cell-based; conditions: Sydowia polyspora, 336 h, beerwort/peptone agar, 28° C., 2 weeks
Procedure: as §1

Trichoderma viride = assay: MIC on agar, Trichoderma viride; assay type: cell-based; conditions: 336 h, beerwort/peptone agar, 28° C., 2 weeks
Procedure: as §1

Penicillium glaucum = assay: MIC on agar, Penicillium glaucum; assay type: cell-based; conditions: 336 h, beerwort/peptone agar, 28° C., 2 weeks
Procedure: as §1

Coniophora puteana = assay: MIC on agar, Coniophora puteana; assay type: cell-based; conditions: 336 h, beerwort/peptone agar, 28° C., 2 weeks
Procedure: as §1

Polyporus versicolor = assay: MIC on agar, Polyporus versicolor; assay type: cell-based; conditions: Trametes versicolor, 336 h, beerwort/peptone agar, 28° C., 2 weeks
Procedure: as §1

Lentinus tigrinus = assay: MIC on agar, Lentinus tigrinus; assay type: cell-based; conditions: 336 h, beerwort/peptone agar, 28° C., 2 weeks
Procedure: as §1

[1] = system: Aspergillus niger, Aureobasidium pullulans, Alternaria tenuis, Penicillim citrinum, Stachybotrys atra, Paecilamyces varioti, Cladosporium herbarum, Aspergillus …; assay: Test as a paint fungicide (mould-resistance of paint films, Report 219 of the Defense Standards Laboratories); conditions: alkyd resin lacquer paint containing 0.8% of compound based on weight of film; also after ageing (running water 24° C. 24 h, fresh air 40° to 60° C. 8 days, dry Xenon test 110 h); evaluated after 3 weeks at 28° to 30° C.
Procedure: The testing is carried out in accordance with the method in Report 219 of the Defense Standards Laboratories Maribyrnong/Australia, as follows: A smooth card is coated on both sides with the paint to be tested and dried at room temperature for 8 days. For ageing, part of the paint film is kept in running water of 24° C. for 24 hours, or aerated with fresh air of 40° to 60° C. for 8 days, or subjected to a dry Xenon test for 110 hours. 5×5 cm sections of the samples thus prepared are placed individually on a glucose nutrient medium in Petri dishes and contaminated with a spore suspension of the following fungi: Aspergillus niger, Aureobasidium pullulans, Alternaria tenuis, Penicillim citrinum, Stachybotrys atra, Paecilamyces varioti, Cladosporium herbarum, Aspergillus ustus and Aspergillus flavus.
The contaminated dishes are kept at 28° to 30° C. and 90 to 95% relative atmospheric humidity, and are evaluated after 3 weeks. Paint films are regarded as mould-resistant if the samples remain free from fungi after these tests.
A commercially available lacquer paint based on alkyd resin is tested for mould-resistance by the above-mentioned test method.

slime organisms = assay: Action against slime organisms; assay type: cell-based; conditions: 504 h; slime organisms (about 10^6 germs/ml), Allens nutrient solution, room temperature, 3 weeks
Procedure: N-(Dichlorofluoromethylthio)-3,4-dimethylmaleimide (dissolved in a little acetone) is used in concentrations of in each case 0.1 to 100 mg/l in Allens nutrient solution (Arch. Mikrobiol. 17, 34 to 53 (1952)), which contains, in 4 l of sterile water, 0.2 g of ammonium chloride, 4.0 g of sodium nitrate, 1.0 g of dipotassium hydrogen phosphate, 0.2 g of calcium chloride, 2.05 g of magnesium sulphate, 0.02 g of iron chloride and 1% of caprolactam. Shortly beforehand, the nutrient solutions are infected with slime organisms (about 10^6 germs/ml) which have been isolated from spinning water circulations used in the production of polyamide. Nutrient solutions which contain the minimum inhibitory concentration (MIC) or higher concentrations of active compound are still completely clear after culture at room temperature for 3 weeks, that is to say the marked increase in microbes and slime formation noticeable after 3 to 4 days in nutrient solutions containing no active compound are absent.

Aspergillus niger = assay: MIC on agar, Aspergillus niger; assay type: cell-based; conditions: 336 h, beerwort/peptone agar, 28° C., 2 weeks
Procedure: as §1

Alternaria tenuis = assay: MIC on agar, Alternaria tenuis; assay type: cell-based; conditions: Alternaria alternata, 336 h, beerwort/peptone agar, 28° C., 2 weeks
Procedure: as §1

Chaetomium globosum = assay: MIC on agar, Chaetomium globosum; assay type: cell-based; conditions: 336 h, beerwort/peptone agar, 28° C., 2 weeks
Procedure: as §1

CC1=C(C)C(=O)N(SC(F)(Cl)Cl)C1=O [N-(dichlorofluoromethylthio)-3,4-dimethylmaleimide]
MIC (Aureobasidium pullulans): 0.5 µg/mL (≈ 1.94 µM) | MIC (Sclerophoma pityophila): 1 µg/mL (≈ 3.87 µM) | MIC (Trichoderma viride): 100 µg/mL (≈ 387 µM) | MIC (Penicillium glaucum): 5 µg/mL (≈ 19.4 µM) | MIC (Coniophora puteana): 0.75 µg/mL (≈ 2.91 µM) | MIC (Polyporus versicolor): 7.5 µg/mL (≈ 29.1 µM) | MIC (Lentinus tigrinus): 1.5 µg/mL (≈ 5.81 µM) | mould-resistance of paint films [1]: mould-resistant | MIC (slime organisms): 7.5 µg/mL (≈ 29.1 µM) | MIC (Aspergillus niger): 50 µg/mL (≈ 194 µM) | MIC (Alternaria tenuis): 0.75 µg/mL (≈ 2.91 µM) | MIC (Chaetomium globosum): 50 µg/mL (≈ 194 µM)
